Measurements as given in patent publication US11690824B2, “Antibacterial compounds” (THE GENERAL HOSPITAL CORPORATION, priority 2018, dated 2023).
Converted amounts (≈) assume the structure as drawn. Read-outs that look alike come from different tables or passages of the source.

Columns and labels:
K. pneumoniae WGLW2 = test: MIC assay; format: cell-based, Klebsiella pneumoniae; settings: for MIC: Klebsiella pneumoniae
Source text: (§1) Bacterial strains, growth conditions, and persister isolation. Methicillin-resistant S. aureus strains, MW2 BAA-1707, ATCC 33591, and JE2, methicillin-susceptible S. aureus strains, NCTC 8325, Newman, and ATCC 29213, vancomycin-resistant S. aureus strain, VRS1, Enterococcus faecium E007, vancomycin-resistant E. faecium strains, C68,^7 WB312, and WC196, Klebsiella pneumoniae WGLW2 (BEI Resources, Manassas, Va., USA), Acinetobacter baumannii ATCC 17978, Pseudomonas aeruginosa PA14, and Enterobacter aerogenes ATCC 13048 were used to test antimicrobial activity (Table 1). S. aureus strains were grown in tryptic soy broth (TSB) (BD, Franklin Lakes, N.J., USA), and E. faecium was grown in brain-heart infusion (BHI) broth (BD, Franklin Lakes, N.J., USA) at 37° C. K. pneumoniae, A. baumannii, P. aeruginosa, and E. aerogenes were grown in Luria Bertani (LB) broth (BD, Franklin Lakes, N.J., USA) at 37° C.
(§2) Minimal inhibitory concentration (MIC) assay. The MICS of antibiotics were determined by the standard micro-dilution method recommended by the Clinical and Laboratory Standards Institute. MIC assays were conducted in biological triplicate.

A. baumannii ATCC 17978 = test: MIC assay; format: cell-based, Acinetobacter baumannii; settings: for MIC: Acinetobacter baumannii
Source text: as §1, §2

MRSA MW2 [1] = test: Serial passage resistance development; format: cell-based, S. aureus; settings: 25 days, sub-MIC concentrations
Method: Serial passage resistance development. […] Briefly, an extended range of concentrations of nTZDpa was generated by two-fold serial dilution with cation-adjusted Mueller Hinton (CaMH) broth (Difco, Detroit, USA) from three different starting concentrations (20, 24, and 32 μg/mL) covering 0.1875 to 32.0 μg/mL, which extended over three rows of the 96-well plate. Three sets of the extended gradient of nTZDpa were created in the 96-well plate to provide triplicates of the experiment. […] MRSA MW2 overnight cultures were adjusted to 1×10^6 CFU/mL in CaMH broth, and 50 μL of the diluted cultures were dispensed into the 96-well plates containing 50 μL of the extended gradient of antibiotics. After incubation for 24 h at 35° C., bacterial growth was determined by measuring optical density at 600 nm using a SpectraMax plate reader (Molecular Devices, Sunnyvale, Calif.), and growth was defined as an optical density reading of ≥0.1. Bacterial cells growing at the highest concentration of the antimicrobial (just below the MIC) were diluted 1:1000 in CaMH broth and then used to inoculate the next day's serial-passage plate. The remaining bacterial cells were stored at −80° C. in CaMH broth with 16% glycerol. This process was repeated for 25 days.

S. aureus JE2 = test: MIC assay; format: cell-based; settings: for MIC: Staphylococcus aureus
Source text: as §1, §2

S. aureus Newman = test: MIC assay; format: cell-based; settings: for MIC: Staphylococcus aureus, read-out: Minimum inhibitory concentration
Source text: as §1, §2

S. aureus NCTC 8325 = test: MIC assay; format: cell-based; settings: for MIC: Staphylococcus aureus
Source text: as §1, §2

S. aureus VRS1 = test: MIC assay; format: cell-based; settings: for MIC: Staphylococcus aureus
Source text: as §1, §2

S. aureus ATCC 33591 = test: MIC assay; format: cell-based; settings: for MIC: Staphylococcus aureus
Source text: as §1, §2

E.faecium E007 = test: MIC assay; format: cell-based, Enterococcus faecium; settings: for MIC: Enterococcus faecium
Source text: as §1, §2

E. faecium WB312 = test: MIC assay; format: cell-based, Enterococcus faecium; settings: for MIC: Enterococcus faecium
Source text: as §1, §2

E. faecium WC196 = test: MIC assay; format: cell-based, Enterococcus faecium; settings: for MIC: Enterococcus faecium
Source text: as §1, §2

E. faecium C68 = test: MIC assay; format: cell-based, Enterococcus faecium; settings: for MIC: Enterococcus faecium
Source text: as §1, §2

E. aerogenes ATCC 13048 = test: MIC assay; format: cell-based, Enterobacter aerogenes; settings: for MIC: Klebsiella aerogenes
Source text: as §1, §2

P. aeruginosa PA14 = test: MIC assay; format: cell-based, Pseudomonas aeruginosa; settings: for MIC: Pseudomonas aeruginosa
Source text: as §1, §2

S. aureus (MRSA) MW2 = test: Minimal inhibitory concentration (MIC) assay, micro-dilution; format: cell-based
Source text: as §1, §2

S. aureus ATCC 29213 = test: MIC assay; format: cell-based
Source text: as §1, §2

MRSA MW2 [2] = test: Antibiotic synergy test (checkerboard); format: cell-based, S. aureus; settings: nTZDpa in combination with the named antibiotic, synergy if FICI ≤ 0.5
Method: Antibiotic synergy test. Antibiotic synergism was evaluated by the checkerboard method. Briefly, 2-fold serial dilutions of nTZDpa were combined with 2-fold serial dilutions of each other antibiotic, which created an 8×8 matrix in a 96-well microtiter plate. The fractional inhibitory concentration index (FICI) was calculated as follows: FICI=MIC of compound A in combination/MIC of compound A alone+MIC of compound B in combination/MIC of compound B alone. The interaction between two compounds was defined, as follows: synergy if FICI≤0.5, no interaction if 0.5<FICI≤4, and antagonism if FICI>4.

[3] = system: exponential-phase MRSA MW2; test: Killing kinetics assay; format: cell-based, S. aureus; settings: 32 μg/ml (32× MIC), after 4 hours
Method: Killing kinetics assay. An MRSA MW2 overnight culture was diluted 1:10,000 in 25 mL TSB (˜10^5 CFU/mL) in a 250 mL flask and incubated at 37° C. with shaking at 200 rpm for 4.5 h until it reached exponential-phase (˜2×10^7 CFU/mL). 1 mL of the exponential phase cell culture was mixed with 1 mL of pre-warmed TSB containing twice the desired concentrations of antibiotics in a 96-well assay block (Corning Costar 3960). The assay block was incubated at 37° C. with shaking at 200 rpm. At every hour, 400 μl aliquots were taken, washed once with phosphate buffered saline (PBS), serially diluted and spot-plated onto tryptic soy agar (TSA, BD) plates. After incubation at 37° C. for overnight, colonies were counted to enumerate the number of cells. These experiments were conducted in biological triplicate.

MRSA MW2 [4] = test: Deep-seated mouse thigh infection model; format: in vivo; settings: vancomycin 25 mg/kg i.p., gentamicin 30 mg/kg s.c., nTZDpa 50 mg/kg i.p., 5 days
Method: Deep-seated mouse thigh infection model. In vivo efficacy of nTZDpa alone or in combination with gentamicin against MRSA persisters was evaluated by a previously described neutropenic mouse thigh infection model with modifications. Six-week-old female CD-I mice (20-25 g, Charles River Laboratories, Wilmington, Mass., USA) were obtained from Charles River Laboratories (Wilmington, Mass., USA). The CD-I mice were rendered neutropenic by administering 150 mg/kg and 100 mg/kg of cyclophosphamide intraperitoneally (i.p.) at 4 days and 1 day before infection, respectively. On the day of infection, overnight culture of MRSA MVV2 was washed 3-time with sterile saline and diluted to 10^7 CFU/ml in the saline. 50 μl of the diluted culture (5×10^5 CFU per mouse) was injected to the right thigh of each mouse. nTZDpa was dissolved in Kolliphor EL (Sigma-Aldrich, St Louis, Mo., USA)/ethanol 1:1 and then diluted 1:10 in saline to a final concentration of 50 mg/kg. At 24 h post-infection, groups of mice (n=10) were treated with 30 mg/kg gentamicin subcutaneously (s.c.) every 12 h, 25 mg/kg vancomycin i.p. every 24 h, 50 mg/kg nTZPpa i.p. every 24 h, or the combination of 50 mg/kg nTZDpa i.p. every 24 h and 30 mg/kg gentamicin s.c. every 12 h for 5 days. Control mice were injected with 250 μl of 10% Kolliphor EL/ethanol in saline i.p. every 24 h for 5 days. Mice were euthanized at 96 h post-infection. Blood was collected by cardiac puncture, and the infected thighs were aseptically excised, weighed, and stored at 4° C. until homogenization. To evaluate hepatic and renal toxicities, the levels of alanine aminotransferase and blood urea nitrogen were analyzed with commercially available kits, following the manufacturer's protocol (Pointe Scientific, Canton, Mich., USA). Thighs were homogenized in PBS, serially diluted with PBS, and spot-plated on TSA plates. […] Statistical significance among each group was analyzed by one-way ANOVA with post-hoc Tukey test using PASW Statistics 18 (SPSS Inc. Chicago, Ill., USA).

O=C(O)c1cn(C2CC2)c2cc(N3CCNCC3)c(F)cc2c1=O [Ciprofloxacin, ciprofloxacin]
MIC (K. pneumoniae WGLW2; K. pneumoniae WGLW2, read-out: Minimum inhibitory concentration): 0.031 µg/mL (≈ 0.0936 µM)
MIC (A. baumannii ATCC 17978; ATCC17978, A. baumannii ATCC 17978, read-out: Minimum inhibitory concentration): 0.25 µg/mL (≈ 0.754 µM)
increase of MIC over wild-type after serial passage (MRSA MW2 [1]): 32 fold
MIC (S. aureus JE2; S. aureus JE2, read-out: Minimum inhibitory concentration): 16 µg/mL (≈ 48.3 µM)
MIC (S. aureus Newman; S. aureus Newman): 0.25 µg/mL (≈ 0.754 µM)
MIC (S. aureus NCTC 8325; NCTC8325, S. aureus NCTC 8325, read-out: Minimum inhibitory concentration): 0.125 µg/mL (≈ 0.377 µM)
MIC (S. aureus VRS1; S. aureus VRS1, read-out: Minimum inhibitory concentration): 64 µg/mL (≈ 193 µM)
MIC (S. aureus ATCC 33591; ATCC33591, S. aureus ATCC 33591, read-out: Minimum inhibitory concentration): 0.25 µg/mL (≈ 0.754 µM)
MIC (E.faecium E007; E.faecium E007, read-out: Minimum inhibitory concentration): > 64 µg/mL
MIC (E. faecium WB312; E. faecium WB312, read-out: Minimum inhibitory concentration): 32 µg/mL (≈ 96.6 µM)
MIC (E. faecium WC196; E. faecium WC196, read-out: Minimum inhibitory concentration): 1 µg/mL (≈ 3.02 µM)
MIC (E. faecium C68; E. faecium C68, read-out: Minimum inhibitory concentration): > 64 µg/mL
MIC (E. aerogenes ATCC 13048; ATCC13048, E. aerogenes ATCC 13048, read-out: Minimum inhibitory concentration): 0.031 µg/mL (≈ 0.0936 µM)
MIC (P. aeruginosa PA14; P. aeruginosa PA14, read-out: Minimum inhibitory concentration): 0.063 µg/mL (≈ 0.19 µM)

Cc1onc(-c2ccccc2)c1C(=O)N[C@@H]1C(=O)N2[C@@H]1SC(C)(C)[C@@H]2C(=O)O [Oxa, oxacillin]
Minimum inhibitory concentration (K. pneumoniae WGLW2; K. pneumoniae WGLW2): >64 µg/mL
Minimum inhibitory concentration (A. baumannii ATCC 17978; A. baumannii ATCC 17978): >64 µg/mL
Minimum inhibitory concentration (S. aureus (MRSA) MW2; S. aureus (MRSA) MW2): 64 µg/mL (≈ 159 µM)
Minimum inhibitory concentration (S. aureus JE2; S. aureus JE2): 64 µg/mL (≈ 159 µM)
Minimum inhibitory concentration (S. aureus Newman; S. aureus Newman): 0.5 µg/mL (≈ 1.25 µM)
Minimum inhibitory concentration (S. aureus NCTC 8325; S. aureus NCTC 8325): 0.5 µg/mL (≈ 1.25 µM)
Minimum inhibitory concentration (S. aureus VRS1; S. aureus VRS1): >64 µg/mL
Minimum inhibitory concentration (S. aureus ATCC 33591; S. aureus ATCC 33591): >64 µg/mL
Minimum inhibitory concentration (S. aureus ATCC 29213; S. aureus ATCC 29213): 0.5 µg/mL (≈ 1.25 µM)
Minimum inhibitory concentration (E.faecium E007; E.faecium E007): >64 µg/mL
Minimum inhibitory concentration (E. faecium WB312; E. faecium WB312): >64 µg/mL
Minimum inhibitory concentration (E. faecium WC196; E. faecium WC196): >64 µg/mL
Minimum inhibitory concentration (E. faecium C68; E. faecium C68): >64 µg/mL
Minimum inhibitory concentration (E. aerogenes ATCC 13048; E. aerogenes ATCC 13048): >64 µg/mL
Minimum inhibitory concentration (P. aeruginosa PA14; P. aeruginosa PA14): >64 µg/mL

CN[C@H](CC(C)C)C(=O)N[C@H]1C(=O)N[C@@H](CC(N)=O)C(=O)N[C@H]2C(=O)N[C@H]3C(=O)N[C@H](C(=O)N[C@H](C(=O)O)c4cc(O)cc(O)c4-c4cc3ccc4O)[C@H](O)c3ccc(c(Cl)c3)Oc3cc2cc(c3O[C@@H]2O[C@H](CO)[C@@H](O)[C@H](O)[C@H]2O[C@H]2C[C@](C)(N)[C@H](O)[C@H](C)O2)Oc2ccc(cc2Cl)[C@H]1O [Vancomycin, vancomycin]
MIC (K. pneumoniae WGLW2; WGLW2, read-out: Minimum inhibitory concentration): > 64 µg/mL
MIC (A. baumannii ATCC 17978; ATCC17978, read-out: Minimum inhibitory concentration): > 64 µg/mL
MIC (S. aureus (MRSA) MW2; Staphylococcus aureus, MRSA, read-out: Minimum inhibitory concentration): 1 µg/mL (≈ 0.69 µM)
FICI (fractional inhibitory concentration index) (MRSA MW2 [2]): 1
MIC (S. aureus JE2; JE2, read-out: Minimum inhibitory concentration): 1 µg/mL (≈ 0.69 µM)
MIC (S. aureus Newman; NEWMAN): 2 µg/mL (≈ 1.38 µM)
MIC (S. aureus NCTC 8325; NCTC8325, read-out: Minimum inhibitory concentration): 1 µg/mL (≈ 0.69 µM)
MIC (S. aureus VRS1; VRS1, read-out: Minimum inhibitory concentration): > 64 µg/mL
MIC (S. aureus ATCC 33591; ATCC33591, read-out: Minimum inhibitory concentration): 2 µg/mL (≈ 1.38 µM)
MIC (S. aureus ATCC 29213; Staphylococcus aureus, ATCC29213, read-out: Minimum inhibitory concentration): 1 µg/mL (≈ 0.69 µM)
MIC (E.faecium E007; E007, read-out: Minimum inhibitory concentration): 1 µg/mL (≈ 0.69 µM)
MIC (E. faecium WB312; WB312, read-out: Minimum inhibitory concentration): 16 µg/mL (≈ 11 µM)
MIC (E. faecium WC196; WC196, read-out: Minimum inhibitory concentration): 64 µg/mL (≈ 44.2 µM)
MIC (E. faecium C68; C68, read-out: Minimum inhibitory concentration): 64 µg/mL (≈ 44.2 µM)
decrease in viability [3]: 2 log
MRSA CFUs / viability of persisters in thigh, single agent (MRSA MW2 [4]): neither vancomycin nor gentamicin reduced MRSA CFUs
MIC (E. aerogenes ATCC 13048; ATCC13048, read-out: Minimum inhibitory concentration): > 64 µg/mL
MIC (P. aeruginosa PA14; PA14, read-out: Minimum inhibitory concentration): > 64 µg/mL
